# Data taken from patent publication US8409618B2, “Odor-reducing quinone compounds” (Kimberly-Clark Worldwide, Inc., priority 2002, dated 2013).
# How the values were obtained:
# Design in all cases: species or system human
# [1] = Urine odor and secondary odor panel ranking, dye powders in urine, 8 millimolar (Example 7); settings: for Secondary Odor Ranking: scale 1 to 5, 5 extremely unpleasant, individual panelists' scores; for Average Urine Odor Ranking (with statistical corrections), Avg. Score: ignoring statistical anomalies
# Experimental: (§1) Qualitative odor reduction was also assessed against common odors, such as garlic and urine. Specifically, panelists assessed odorant-containing jars by carefully unscrewing, and then raising the lid of each jar in a controlled manner, such that the odor was not diluted by the ambient air. The jars were wrapped and coded to ensure that the sample identity was unknown.
# The effectiveness of various dyes in reducing urine odor was compared. […] Human female urine was initially collected and pooled by a nurse on staff at Kimberly-Clark Corporation. The pooled urine was added to mason jars in 50-milliliter aliquots using an automated pipette aid. Powders of the aforementioned dyes (commercially available from Sigma-Aldrich Chemical Co., Inc. of St. Louis, Mo. and Noveon Hilton Davis, Inc. of Cincinnati, Ohio) were weighed and placed into the mason jars containing 50 milliliters of urine so that the final concentration of the dye powder was 8 millimolar (equivalent to 0.5 wt. %). The mason jars were placed in an incubator overnight at 37° C.
# To aid in the assessment of the dyes, the mason jars were divided into two groups for a morning assessment, and the best of both groups were compared in an afternoon assessment (after a total of 24 hours). In addition to ranking the jars from least to most malodorous (on a scale from 1 to 7, with 7 being the most malodors), panelists were also asked to judge whether there were secondary (non-urine) odors present and, if so, the extent that the secondary odors were unpleasant (on a scale from 1 to 5, with 5 being extremely unpleasant).
# In this assessment, panelists were given instructions to rank the least malodorous jar as “1” and the most malodorous jar as “10,” remaining free to rank the other jars between 2-9.
# [2] = Urine odor panel ranking, dye powders in urine, 8 millimolar (Example 5); settings: 8 millimolar dye in urine
# Experimental: as §1, with “unknown. The effectiveness of various quinone dyes in reducing urine odor was compared. Human female urine was initially collected and pooled by a nurse on staff at Kimberly-Clark Corporation.” for “unknown.”
# [3] = Urine odor panel ranking, dye-coated Poise pads without SN-AK (Example 8); settings: for urine odor reduction (panel), assessment within set: overnight 37° C.
# Experimental: as §1
# Specifically, Acid Green 25, Acid Green 41, Acid Blue 129, and D&C Green No. 5 were tested. Powders of the aforementioned dyes (commercially available from Sigma-Aldrich Chemical Co., Inc. of St. Louis, Mo. and Noveon Hilton Davis, Inc. of Cincinnati, Ohio) were dissolved in water so that the concentration of the dye was 8 millimolar (equivalent to 0.5 wt. %). Samples of tissue wrap were created by cutting 9″×6″ sheets from a roll of tissue (1 ply white cellulose wrap sheet having a basis weight of 16.6 grams per square meter) were weighed, oven-dried overnight at 90° C., and weighed again the next day to calculate the amount of residual water in each wrap. The wraps were then dipped into a respective dye solution and hung to dry overnight, after which they were weighed again. The treated wraps were then rinsed in deionized water to remove any unbound dye and hung again to dry overnight. After weighing the treated wraps, they were once again oven-dried overnight at 90° C. and weighed to determine the dry add-on percentages ([…]). The add-on percentage for each sample was approximately 1.6 wt. %.
# Two different sets of Poise® pads (commercially available from Kimberly-Clark Corp.) were tested. The first set of dye-coated tissue wraps (without SN-AK) was inserted around the pledgette area of the Poise® pads. The Poise® pads were cut open and the tissue wrap surrounding the pledgette carefully removed and replaced with dye-coated tissue wrap. The second set of dye-coated tissue wraps (without SN-AK) used dye coatings on the top of the pad (rather than inside). These pads were constructed by spreading the solution over the top of each pad. To prevent the superabsorbent area of the pad from soaking up the solution, the pads were cut open prior to coating and a layer of plastic wrap was placed between the top layer of the pad and the superabsorbent core. A pad that was cut open, but coated only with water on top, was used as a control. All pads were dried at room temperature overnight before placing them in mason jars for testing. For control purposes, a Poise® pad was also tested that was cut open, but retained its original tissue wrap. In addition, Serenity® Night & Day™ incontinence pads, which are commercially available from SCA Incontinence Care of Eddystone, Pa. and said to employ OdaSorb Plus™ to reduce odor, were also used for comparison.
# Fresh human female urine was then pooled, and 50-milliliter aliquots were applied to the pads using a pipette. The mason jars were placed in a 37° C. incubator overnight for assessment the next day. […] Panelists were again asked to rank any secondary odors for unpleasantness on a scale of 1-5.
# [4] = Second Grouping, morning assessment, 8 millimolar, higher = more malodorous
# [5] = After 24 Hours, top performers of both groupings, 1 least, 10 most malodorous
# [6] = after 24 hours, top performers, 1 least, 10 most malodorous
# [7] = After 6 Hours, 10 most, 1 least malodorous
# [8] = After 24 Hours, 10 most, 1 least malodorous
# [9] = First Grouping, morning assessment, 8 millimolar, 7 most malodorous
# [10] = 1st set (tissue-wrap coating), After 30 Hours
# [11] = 2nd set (top-sheet coating), After 30 Hours
structure (smiles),measurement,setting,value
"O=C1C=C(S(=O)(=O)[O-])C(=O)c2ccccc21.[K+] [1,4 Naphthaquinone, 1,4 naphthaquinone-2-sulfonic acid potassium salt]","Average Urine Odor Ranking, Avg. Score",[1]; Second Grouping,1.8
same,secondary (non-urine) odor (panel),[1]; Second Grouping,unpleasant secondary odor
same,Urine Odor Ranking (number of panelists): ranking 1,[1]; [4],2 number of panelists
same,Urine Odor Ranking (number of panelists): ranking 2,[1]; [4],2 number of panelists
same,Urine Odor Ranking (number of panelists): ranking 3,[1]; [4],1 number of panelists
Cc1ccc(Nc2ccc(Nc3ccc(C)cc3S(=O)(=O)[O-])c3c2C(=O)c2ccccc2C3=O)c(S(=O)(=O)[O-])c1.[Na+].[Na+] [D&C Green No. 5],Urine Odor Ranking (number of panelists): ranking 2,[1]; [5],1 number of panelists
same,Urine Odor Ranking (number of panelists): ranking 4,[1]; [5],1 number of panelists
same,Urine Odor Ranking (number of panelists): ranking 7,[1]; [5],2 number of panelists
same,Urine Odor Ranking (number of panelists): ranking 10,[1]; [5],1 number of panelists
same,Secondary Odor Ranking,[1]; After 24 Hours,4
same,urine odor reduction (panel),[1]; Second Grouping,did not perform as well compared to the other dyes
same,Urine Odor Ranking (number of panelists): ranking 4,[1]; [4],3 number of panelists
same,Urine Odor Ranking (number of panelists): ranking 5,[1]; [4],2 number of panelists
same,Secondary Odor Ranking,[1]; Second Grouping,4
same,"Average Urine Odor Ranking, Avg. Score",[1]; [6],6.0
same,"Average Urine Odor Ranking (with statistical corrections), Avg. Score","[1]; after 24 hours, top performers",7.0
same,urine malodor reduction (panel),[2]; 6 and 24 hours,functioned effectively in reducing urine malodor
same,Avg. Ranking (odor),[2]; [7],3.0
same,Ranking (number of panelists): ranking 1,[2]; [7],1 number of panelists
same,Ranking (number of panelists): ranking 3,[2]; [7],3 number of panelists
same,Ranking (number of panelists): ranking 5,[2]; [7],1 number of panelists
same,Avg. Ranking (odor),[2]; [8],5.2
same,Ranking (number of panelists): ranking 4,[2]; [8],3 number of panelists
same,Ranking (number of panelists): ranking 5,[2]; [8],1 number of panelists
same,Ranking (number of panelists): ranking 7,[2]; [8],2 number of panelists
Cc1ccc(Nc2ccc(Nc3ccc(C)cc3S(=O)(=O)[O-])c3c2C(=O)c2ccccc2C3=O)c(S(=O)(=O)[O-])c1.[Na+].[Na+] [Acid Green 25],Urine Odor Ranking (number of panelists): ranking 1,[1]; [5],3 number of panelists
same,Urine Odor Ranking (number of panelists): ranking 2,[1]; [5],1 number of panelists
same,Urine Odor Ranking (number of panelists): ranking 10,[1]; [5],1 number of panelists
same,Urine Odor Ranking (number of panelists): ranking 1,[1]; [9],3 number of panelists
same,Urine Odor Ranking (number of panelists): ranking 2,[1]; [9],1 number of panelists
same,Urine Odor Ranking (number of panelists): ranking 6,[1]; [9],1 number of panelists
same,"Average Urine Odor Ranking, Avg. Score","[1]; First Grouping, scale 1 to 7, 7 most malodorous",2.2
same,"Average Urine Odor Ranking, Avg. Score",[1]; Second Grouping,4.4
same,urine odor reduction (panel),"[1]; after 24 hours, top performers of both groupings",achieved the best odor reduction
same,"Average Urine Odor Ranking, Avg. Score",[1]; [6],3.0
same,"Average Urine Odor Ranking (with statistical corrections), Avg. Score","[1]; after 24 hours, top performers",1.3
same,secondary (non-urine) odor (panel),[1]; first grouping,not found to be unpleasant by most panelists
same,urine odor reduction (panel),[1]; first grouping,functioned effectively to reduce odor
same,Urine Odor Ranking (number of panelists): ranking 3,[3]; [10],1 number of panelists
same,Urine Odor Ranking (number of panelists): ranking 4,[3]; [10],1 number of panelists
same,Urine Odor Ranking (number of panelists): ranking 5,[3]; [10],1 number of panelists
same,Urine Odor Ranking (number of panelists): ranking 6,[3]; [10],1 number of panelists
same,Secondary Odor Ranking,"[3]; 1st set (tissue-wrap coating), After 30 Hours, scale of 1-5",4
same,"Average Urine Odor Ranking, Avg. Score","[3]; 1st set (tissue-wrap coating), final pooled assessment",4.50
same,Urine Odor Ranking (number of panelists): ranking 1,[3]; [11],3 number of panelists
same,Urine Odor Ranking (number of panelists): ranking 7,[3]; [11],1 number of panelists
same,"Average Urine Odor Ranking, Avg. Score","[3]; 2nd set (top-sheet coating), final pooled assessment",2.50
same,"urine odor reduction (panel), assessment within set",[3]; first set of pads (dye-coated tissue wrap around pledgette),performed best for the first set of pads
same,"urine odor reduction (panel), assessment within set",[3]; second set of pads (dye coating on top of pad),performed best for the second set of pads
same,overall urine odor control performance (panel),"[3]; top-sheet coating, final pooled assessment",best performer overall
